Reference: patent US11274095B2, “Modulators of methyl modifying enzymes, compositions and uses thereof” (Constellation Pharmaceuticals, Inc., priority 2018, dated 2022)

How the values were obtained:
PRC2 containing wt EZH2 [1] = molecular target: T1, PRC2 containing wt EZH2 (Homo sapiens (Human), UniProt Q15910); assay: EZH2 biochemical assay (IC50), 3H-SAM incorporation into biotinylated H3 peptide; details: 30 pM PRC2 with wt EZH2, 3-5 h pre-incubation
Procedure: EZH2 biochemical assay (IC50): Compound potencies were assessed through incorporation of ^3H-SAM into a biotinylated H3 peptide. Specifically, 30 pM PRC2 containing wt EZH2 (pentameric complex prepared in-house) was pre-incubated with 450 nM SAM, 450 nM ^3H-SAM, 2 μM H3K27me3 activating peptide (H2N-RKQLATKAAR(Kme3)SAPATGGVKKP-amide) and compounds (as 10 point duplicate dose response titrations in DMSO, final assay 0.8% DMSO (v/v)) for 3-5 h in 50 mM Tris (pH 8.5), 1 mM DTT, 0.07 mM Brij-35, 0.1% BSA, and 0.8% DMSO in a total volume of 12.5 μl. Reaction was initiated with biotinylated H3 substrate peptide (H2N-RKQLATKAAR(Kmel)SAPATGGVKKP-NTPEGBiot) as a 2 μM stock in 12.5 μl of buffer and allowed to react at room temperature for 18-22 h. Quenching was accomplished by addition of 20 μl of STOP solution (50 mM Tris (pH 8.5), 200 mM EDTA, 2 mM SAH). 35 μl of the quenched solution was transferred to streptavidin coated FlashPlates (PerkinElmer), incubated 1-2 h, washed, and read in a TopCount Reader (PerkinElmer). IC50s were calculated in Genedata Screener using non-linear least square four parameter fits, where the four parameters were IC50, Hill slope, pre-transitional baseline (0% INH), and post-transitional baseline (100% INH).

Karpas-422 cell lines = assay: Karpas-422 viability assay (Cell Titer-Glo, Day 8); format: cell-based; details: Homo sapiens, KARPAS-422, 192 h, Cell Titer-Glo on Day 8
Procedure: Karpas-422 cell lines were obtained from DSMZ (Braunschweig, Germany) and were grown in RPMI-1640 media. All media contained 10% fetal bovine serum (FBS) and 1% penicillin/streptomycin (Invitrogen). 20K cells per well were plated onto 96 well compound coated plates. Cells were split and seeded at original plating density (based on the DMSO well counts) every 4 days into plates containing fresh EZH2 inhibitors. Relative cell numbers were assessed by Cell Titer-Glo luminescent cell viability assay (Promega) on Day 8. GraphPad Prism 5 was used for curve fitting and GI50 values were reported.

PRC2 containing wt EZH2 [2] = molecular target: T1, PRC2 containing wt EZH2; assay: EZH2 residence time assay (100-fold dilution of enzyme-inhibitor complex); format: biochemical; details: recovery of enzyme activity after 100-fold dilution; read-out: EZH2 residence time (converted)
Procedure: EZH2 residence time assay: Compound residence times were assessed by monitoring the recovery of enzyme activity following a 100-fold dilution of pre-formed enzyme-inhibitor complex (dilution reaction), and comparing it to the activity of an undiluted control with the same final concentrations of all reagents (control reaction). Enzyme activity was measured by incorporation of ^3H-SAM into a biotinylated H3 peptide. For the dilution reaction, 20 nM PRC2 containing wt EZH2 (pentameric complex prepared in-house) was pre-incubated with 1 μM activating peptide (H2N-RKQLATKAAR(Kme3)SAPATGGVKKP-amide) and compound at 600 times its Ki for 2 h in 40 μL of buffer (50 mM Tris pH 8.5, 4 mM DTT, 1 mM MgCl2, 0.07 mM Brij-35, and 0.1 mg/mL BSA), then diluted 100-fold and the reaction initiated by transferring 1.4 μL to a 138.6 μL volume of buffer containing 1 μM activating peptide, 5.05 μM substrate peptide (H2N-[…]-NTPEGbiot), 1.01 μM SAM, and 1.01 μM ^3H-SAM. […] Reactions were quenched at various time points spanning up to 10 hours, by transferring 8μL aliquots from the reaction vessel to a plate containing 8μL per well of STOP solution (50 mM Tris pH 8.5, 200 mM EDTA, 2 mM SAH). After the last time point, 12 μL of the quenched solutions were transferred to a streptavidin coated FlashPlate (PerkinElmer) containing 40 μL per well of STOP solution, incubated 1-8 h, washed, and read in a TopCount plate reader (PerkinElmer).
A custom script was used to fit control reaction progress data to a straight line and dilution reaction progress data:
[formula] Where y is the product formed, t is the reaction time, vi is the initial velocity, vs is the steady state velocity, and kobs is the rate constant for the transition from the initial velocity phase of the curve to the steady state velocity phase of the curve. In fitting the dilution reaction progress data, vs was constrained to the slope of the line fitted to the control reaction progress data. The fitted value of kobs was then transformed into residence time:
[formula] Where τ is residence time, Ki is the inhibition constant, [EI] is the calculated equilibrium concentration of enzyme-inhibitor complex, [E] is the calculated equilibrium concentration of free enzyme, and [I] is the calculated equilibrium concentration of free inhibitor.

[3] = Cellular permeability in MDCK assay; format: in vitro ADME; details: dog, pH 7.4, MDCK II, with P-gp inhibitor GF120918 10 μM; for efflux ratio at 2.5 h, 2 μM: Papp(BA)/Papp(AB)
Procedure: Cell culture: MDCK II cells (obtained from Piet Borst at the Netherlands Cancer Institute) were seeded onto […] (PET) in 96-well BD insert systems at 2.5×10^5 cells/mL until to 4-7 days for confluent cell monolayer formation.
Experimental procedure: Test and reference compounds (nadolol, metoprolol and digoxin) were diluted with transport buffer (HBSS with 10mM Hepes, pH7.4) from stock solution to a concentration of 2 μM (<1% DMSO) and applied to the apical (A) or basolateral (B) side of the cell monolayer. Permeation of the test compounds from A to B direction or B to A direction was determined in duplicate with P-gp inhibitor (GF120918, 10 μM). Digoxin was tested at 10 μM from A to B direction or B to A direction with/without P-gp inhibitor (GF120918, 10 μM) as well, while nadolol and metoprolol were tested at 2 μM in A to B direction without P-gp inhibitor (GF120918, 10 μM) in duplicate. The plate was incubated for 2.5 hours in CO2 incubator at 37±1° C., with 5% CO2 at saturated humidity without shaking. In addition, the efflux ratio of each compound was also determined. Test and reference compounds were quantified by LC/MS/MS analysis based on the peak area ratio of analyte/IS. After transport assay, Lucifer yellow rejection assay are applied to determine the cell monolayer integrity. Buffers are removed from both apical and basolateral chambers, followed by the addition of 75 μL of 100 μM lucifer yellow in transport buffer and 250 μL transport buffer in apical and basolateral chambers, respectively. The plate is incubated for 30 minutes at 37° C. with 5% CO2 and 95% relative humidity without shaking. After 30 minutes incubation, 20 μL of lucifer yellow samples are taken from the apical sides, followed by the addition of 60 μL of Transport Buffer. And then 80 μL of lucifer yellow samples are taken from the basolateral sides. The relative fluorescence unit (RFU) of lucifer yellow is measured at 425/528 nm (excitation/emission) with a Molecular Device M2e plate reader.
Data analysis: The apparent permeability coefficient Papp (cm/s) was calculated using the equation: Papp=(dCr/dt)×Vr/(A×C0) Where dCr/dt is the cumulative concentration of compound in the receiver chamber as a function of time (μM/s); Vr is the solution volume in the receiver chamber (0.075 mL on the apical side, 0.25 mL on the basolateral side); A is the surface area for the transport, i.e. 0.0804 cm2 for the area of the monolayer; C0 is the initial concentration in the donor chamber (μM).
The efflux ratio was calculated using the equation: Efflux Ratio=Papp(BA)/Papp(AB) Percent recovery was calculated using the equation: % Recovery=100×[(Vr×Cr)+(Vd×Cd)]/(Vd×C0) Where Vd is the volume in the donor chambers (0.075 mL on the apical side, 0.25 mL on the basolateral side); Cd and Cr are the final concentrations of transport compound in donor and receiver chambers, respectively.
Percent of lucifer yellow in basolateral well is calculated using the equation:
[formula] where RFUApical and RFUBasolateral are the relative fluorescence unit values of lucifer yellow in the apical and basolateral wells, respectively; VApical and VBasolateral are the volume of apical and basolateral wells (0.075 mL and 0.25 mL), respectively. Percent lucifer yellow should be less than 2.

H3K27me3 in Hela cells = assay: H3K27me3 Alpha Hela Assay (AlphaLISA); format: cell-based; details: Homo sapiens, HeLa, 72 h
Procedure: H3K27me3 Alpha Hela Assay (AlphaLISA). Ten different doses of each test compound (in a series of 3-fold dilutions) were plated in duplicate 384-well tissue culture treated plates (Catalog #6007680; Perkin Elmer, Waltham, Mass.). Hela cells grown in culture were trypsinized and counted using a Countess® cell counter (Catalog #C10281; Life Technologies, Grand Island, N.Y.). Cell were diluted to 67,000 cells per mL in10% DMEM (Catalog #10569-010 Life Technologies, Grand Island, N.Y.) and 15 μL (1,000 cells) were plated into each well using the Biotek MicroFlo™ Select Dispenser (BioTek Instruments, Inc. Vermont, USA),) of the 384-well plate. Plates were incubated at 37° C./5% CO2 for 72 hrs. One of the duplicate plates was processed for HeLa assay and the other for viability. 5 μL of Cell-Histone Lysis buffer (1×) (Catalog #AL009F1 Perkin Elmer; Waltham, Mass.) per well was added to the plate processed for AlphaLISA and the plate was incubated at RT for 30 minutes on a plate shaker with low speed (Model# 4625-Q Thermo Scientific; Waltham, Mass.). Then, 10 μL per well Histone Extraction buffer (catalog #AL009F2; Perkin Elmer; Waltham, Mass.) was added and the plate further incubated at RT for 20 min on plate shaker with low speed. Next, 10 μL of 5× mix of anti-K27me3 acceptor beads plus Biotinylated anti-Histone H3 (C-ter) Antibody (diluted to 3 nM final) (Catalog #AL118 Perkin Elmer; Waltham, Mass.) was added in each well. Dilution of the acceptor beads and anti-Histone H3 was done in 1× Histone Detection buffer (Catalog #AL009F3 Perkin Elmer; Waltham, Mass.) which was produced by diluting the 10× stock provided. The plate was sealed with an aluminum plate sealer and incubated at 23° C. for 60 min. Next, 10 μL 5× solution of Streptavidin Donor beads were added (Catalog #6760002 Perkin Elmer; Waltham, Mass.) (20 μg/mL final in 1× Histone Detection Buffer), =plate was sealed with Aluminum plate sealer and incubated at 23° C. for 30 min. The plates were then read using an EnVision-Alpha Reader (model #2104 Perkin Elmer; Waltham, Mass.). […]

T1 sequence (Q15910 whole entry): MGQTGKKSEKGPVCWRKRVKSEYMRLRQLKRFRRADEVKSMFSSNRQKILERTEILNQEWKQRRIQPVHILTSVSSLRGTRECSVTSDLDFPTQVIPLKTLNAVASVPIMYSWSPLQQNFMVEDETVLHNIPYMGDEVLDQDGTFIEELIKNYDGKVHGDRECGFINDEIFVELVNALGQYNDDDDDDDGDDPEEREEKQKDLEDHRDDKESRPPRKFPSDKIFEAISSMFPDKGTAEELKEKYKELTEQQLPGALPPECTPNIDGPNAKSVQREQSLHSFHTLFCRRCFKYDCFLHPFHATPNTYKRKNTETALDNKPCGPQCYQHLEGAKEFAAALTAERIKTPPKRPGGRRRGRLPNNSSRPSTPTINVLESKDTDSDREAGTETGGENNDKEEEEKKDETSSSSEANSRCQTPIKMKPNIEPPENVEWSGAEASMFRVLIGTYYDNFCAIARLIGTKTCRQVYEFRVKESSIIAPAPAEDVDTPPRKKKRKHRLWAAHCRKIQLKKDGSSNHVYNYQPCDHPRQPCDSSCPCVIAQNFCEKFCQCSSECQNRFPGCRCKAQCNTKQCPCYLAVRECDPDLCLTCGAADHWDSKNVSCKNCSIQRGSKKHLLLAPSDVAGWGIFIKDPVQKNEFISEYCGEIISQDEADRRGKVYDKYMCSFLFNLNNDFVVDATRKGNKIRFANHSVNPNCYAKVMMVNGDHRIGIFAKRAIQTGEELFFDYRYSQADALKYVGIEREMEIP
T1 sequence (O75530 whole entry partner): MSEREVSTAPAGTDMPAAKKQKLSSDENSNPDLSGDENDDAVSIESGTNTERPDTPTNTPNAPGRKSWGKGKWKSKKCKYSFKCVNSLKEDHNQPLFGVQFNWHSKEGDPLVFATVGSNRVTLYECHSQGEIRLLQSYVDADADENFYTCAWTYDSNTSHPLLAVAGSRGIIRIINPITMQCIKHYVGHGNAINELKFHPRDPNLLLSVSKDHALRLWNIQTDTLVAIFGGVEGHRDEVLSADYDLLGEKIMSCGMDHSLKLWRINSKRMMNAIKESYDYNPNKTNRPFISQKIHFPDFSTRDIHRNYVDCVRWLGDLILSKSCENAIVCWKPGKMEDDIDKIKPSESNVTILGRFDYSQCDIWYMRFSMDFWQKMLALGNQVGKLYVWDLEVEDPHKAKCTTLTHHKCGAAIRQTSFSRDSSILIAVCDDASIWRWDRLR
T1 sequence (Q15022 whole entry partner): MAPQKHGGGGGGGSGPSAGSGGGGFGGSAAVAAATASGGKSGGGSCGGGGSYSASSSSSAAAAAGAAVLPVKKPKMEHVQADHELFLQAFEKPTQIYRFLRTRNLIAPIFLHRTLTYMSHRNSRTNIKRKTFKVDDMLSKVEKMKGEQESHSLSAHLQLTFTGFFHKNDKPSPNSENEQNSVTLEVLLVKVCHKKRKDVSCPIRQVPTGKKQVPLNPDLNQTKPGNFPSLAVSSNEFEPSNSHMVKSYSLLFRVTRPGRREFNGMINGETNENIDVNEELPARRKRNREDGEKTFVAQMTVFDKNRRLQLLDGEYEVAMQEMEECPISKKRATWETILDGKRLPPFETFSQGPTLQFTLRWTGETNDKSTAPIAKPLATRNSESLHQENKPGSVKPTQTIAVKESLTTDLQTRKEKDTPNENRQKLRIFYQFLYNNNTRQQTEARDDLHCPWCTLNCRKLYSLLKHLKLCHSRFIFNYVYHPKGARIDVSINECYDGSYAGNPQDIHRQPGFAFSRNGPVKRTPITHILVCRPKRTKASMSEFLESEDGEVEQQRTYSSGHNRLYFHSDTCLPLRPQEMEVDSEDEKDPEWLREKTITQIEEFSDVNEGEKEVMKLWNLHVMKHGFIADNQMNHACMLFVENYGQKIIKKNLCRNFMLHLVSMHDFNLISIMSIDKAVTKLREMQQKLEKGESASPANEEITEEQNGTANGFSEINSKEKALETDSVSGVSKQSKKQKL
T1 sequence (Q09028 whole entry partner): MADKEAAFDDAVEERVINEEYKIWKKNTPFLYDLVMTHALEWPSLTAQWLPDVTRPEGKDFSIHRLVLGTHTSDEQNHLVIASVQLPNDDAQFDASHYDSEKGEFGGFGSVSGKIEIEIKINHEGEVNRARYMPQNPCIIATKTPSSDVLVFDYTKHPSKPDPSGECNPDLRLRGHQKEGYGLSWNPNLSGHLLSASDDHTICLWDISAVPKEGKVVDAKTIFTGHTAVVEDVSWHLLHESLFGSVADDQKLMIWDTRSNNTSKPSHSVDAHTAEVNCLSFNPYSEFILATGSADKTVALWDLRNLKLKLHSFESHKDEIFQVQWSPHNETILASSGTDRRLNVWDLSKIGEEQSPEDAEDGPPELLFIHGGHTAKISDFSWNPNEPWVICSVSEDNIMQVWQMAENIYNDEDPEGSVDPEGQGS
T1 sequence (Q6ZN18 whole entry partner): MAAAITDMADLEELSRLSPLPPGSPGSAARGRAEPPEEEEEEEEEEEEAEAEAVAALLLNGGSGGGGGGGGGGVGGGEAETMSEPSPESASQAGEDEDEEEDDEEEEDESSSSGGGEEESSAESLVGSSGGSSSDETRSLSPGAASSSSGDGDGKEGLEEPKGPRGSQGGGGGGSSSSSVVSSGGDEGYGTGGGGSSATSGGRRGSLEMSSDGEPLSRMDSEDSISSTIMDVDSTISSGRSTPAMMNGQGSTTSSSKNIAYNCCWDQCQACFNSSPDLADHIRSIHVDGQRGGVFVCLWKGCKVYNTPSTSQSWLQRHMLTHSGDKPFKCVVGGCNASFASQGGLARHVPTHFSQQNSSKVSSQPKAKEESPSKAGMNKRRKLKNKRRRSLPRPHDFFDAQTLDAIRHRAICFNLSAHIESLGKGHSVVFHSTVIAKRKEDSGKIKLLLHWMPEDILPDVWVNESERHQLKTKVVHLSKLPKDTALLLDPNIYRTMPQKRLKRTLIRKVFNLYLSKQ

| IC50 (PRC2 containing wt EZH2 [1]) [nM] | GI50 (Karpas-422 cell lines) [nM] | residence time (PRC2 containing wt EZH2 [2]) [min] | Papp at 2.5 h, 2 μM [3] [×10⁻⁶ cm/s] | efflux ratio at 2.5 h, 2 μM [3] | EC50 (H3K27me3 in Hela cells) [nM] | Compound |
| --- | --- | --- | --- | --- | --- | --- |
| 0.12 | 12 | 1980 | 12 | 0.71 | – | CSc1cc(C)[nH]c(=O)c1CNC(=O)c1cc(Cl)c2c(c1C)OC(C)(C1CCC(N3CC(F)(F)C3)CC1)O2 (single isomer, unassigned) [Example 7-Enantiomer 2] |
| 0.038 | 4 | – | 0.62 | 2.3 | 0.51 | CSc1cc(C)[nH]c(=O)c1CNC(=O)c1cc(Cl)c2c(c1C)O[C@@](C)([C@H]1CC[C@H](N(C)C)CC1)O2 [Example 4] |
